Tests used:
Assay type in all cases: biochemical
B-Raf = target: T1, B-Raf (Homo sapiens, UniProt P15056); experiment: AlphaScreen kinase assay, B-Raf; settings: read-out: IC50, activity toward kinase B-Raf
T1 construct: purchased Upstate Biotechnology

Plk1 = Plk1 (Homo sapiens, UniProt P53350); experiment: AlphaScreen kinase assay, Plk1; settings: read-out: IC50, activity toward kinase Plk1
Source text: (§1) AlphaScreen assay was used to screen additional kinases. The assay is similarly dependent on the phosphorylation of a peptide substrate. In this assay, an antibody that recognizes phosphorylated substrate is bound to an acceptor bead. The peptide substrate is attached to biotin, which binds to a donor head that contains streptavidin. Thus phosphorylated substrate is bound by antibody and streptavidin, bringing the donor and acceptor heads into close proximity when kinase is not inhibited. The donor produces singlet oxygen which results in emission from the acceptor when they are in close proximity. Conversely, when kinase is inhibited, the donor and acceptor beads are not associated and the emission from the acceptor is reduced.
(§2) AlphaScreen assays were done using compounds dissolved in DMSO to a concentration of 20 mM. The compounds were diluted accordingly to the desired final concentrations in each sample well, using 1:3 serial dilution for a total of 8 concentration points.

Kit = target: T2, Kit (Homo sapiens, UniProt P10721); experiment: AlphaScreen kinase assay, Kit; settings: read-out: IC50, activity toward kinase Kit
T2 construct: P1332.N6 BI PTP KIT M552-K948-X COD; His6 (N); made in house; host or cells: E. coli (PTP1B co-expressed)

TEC = target: T3, TEC (Homo sapiens, UniProt P42680); experiment: AlphaScreen kinase assay, TEC; settings: read-out: IC50, activity toward kinase TEC
T3 sequence (P42680 1-631): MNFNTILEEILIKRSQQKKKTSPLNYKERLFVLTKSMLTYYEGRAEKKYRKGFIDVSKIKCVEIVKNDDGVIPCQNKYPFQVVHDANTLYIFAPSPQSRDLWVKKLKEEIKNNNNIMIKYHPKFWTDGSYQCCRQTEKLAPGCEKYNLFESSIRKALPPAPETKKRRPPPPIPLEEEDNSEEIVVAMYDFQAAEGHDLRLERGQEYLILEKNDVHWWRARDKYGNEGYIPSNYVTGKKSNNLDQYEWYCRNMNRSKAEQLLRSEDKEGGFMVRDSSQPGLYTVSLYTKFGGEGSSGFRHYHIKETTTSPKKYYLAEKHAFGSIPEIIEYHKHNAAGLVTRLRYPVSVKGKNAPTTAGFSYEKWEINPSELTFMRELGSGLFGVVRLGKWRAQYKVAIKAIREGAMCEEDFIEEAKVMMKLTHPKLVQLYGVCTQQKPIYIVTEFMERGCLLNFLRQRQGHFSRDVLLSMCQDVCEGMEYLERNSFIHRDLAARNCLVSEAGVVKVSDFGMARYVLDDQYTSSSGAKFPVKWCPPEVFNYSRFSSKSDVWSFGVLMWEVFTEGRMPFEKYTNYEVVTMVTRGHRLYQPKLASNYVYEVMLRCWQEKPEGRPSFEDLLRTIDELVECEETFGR
Source text: as §1, §2

Fms = target: T4, Fms (Homo sapiens, UniProt P07333); experiment: AlphaScreen kinase assay, Fms; settings: read-out: IC50, activity toward kinase Fms
T4 construct: purchased Upstate Biotechnology

FGFR1 = target: T5, FGFR1 (Homo sapiens, UniProt P11362, C488A/C584S); experiment: AlphaScreen kinase assay, FGFR1; settings: read-out: IC50, activity toward kinase FGFR
T5 construct: P1351.pET N6 BI-PTP FGFR A458-E765-X C488A, C584S; made in house; host or cells: E. coli (PTP1B co-expressed)

MAP4K4 = MAP4K4 (Homo sapiens, UniProt O95819); experiment: AlphaScreen kinase assay, MAP4K4; settings: read-out: IC50, activity toward kinase MAP4K4
B-Raf V600E = target: T6, B-Raf V600E (Homo sapiens, UniProt P15056, V600E); experiment: AlphaScreen kinase assay, B-Raf V600E; settings: read-out: IC50, activity toward kinase B-Raf V600E
T6 construct: P4254. pFastBacBD-CDC37 BRAF D437-K722-X, V600E; His6 with pFastBac HT leader (TEV site) (N); made in house; host or cells: Sf9 (baculovirus; chaperone CDC37 co-expressed)

c-Raf-1 = target: T7, c-Raf-1 (Homo sapiens, UniProt P04049); experiment: AlphaScreen kinase assay, c-Raf-1; settings: read-out: IC50, activity toward kinase c-Raf-1
T7 construct: purchased Upstate Biotechnology

Met = target: T8, Met (Homo sapiens, UniProt P08581); experiment: AlphaScreen kinase assay, Met; settings: read-out: IC50, activity toward kinase Met
T8 construct: P1818.pETN6 BI-PTP MET G1056-G1364-X WT; His6 (N); made in house; host or cells: E. coli (PTP1B co-expressed)
Outline: (§3)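 Biotinylated peptide substrate is phosphorylated by kinase; anti-phosphopeptide antibody on acceptor beads and streptavidin donor beads bring emission when substrate is phosphorylated. Inhibition lowers acceptor signal. Compounds from 20 mM DMSO stock tested as 8-point 1:3 serial dilutions.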

Btk = target: T9, Btk (Homo sapiens, UniProt Q06187); experiment: Z'-Lyte FRET kinase assay (Invitrogen), Btk; settings: read-out: IC50, activity toward kinase Btk
T9 construct: purchased Invitrogen (assay run by Invitrogen)

Jnk3 = target: T10, Jnk3 (Homo sapiens, UniProt P53779); experiment: AlphaScreen kinase assay, Jnk3; settings: read-out: IC50, activity toward kinase Jnk3
T10 construct: purchased Upstate Biotechnology

Ret = target: T11, Ret (Homo sapiens, UniProt P07949); experiment: AlphaScreen kinase assay, Ret; settings: read-out: IC50, activity toward kinase Ret
T11 construct: P1378.pET-SF BI-PTP RET H661-R1012 HIS; made in house
T11 sequence (P07949 with tags, fused parts or gaps): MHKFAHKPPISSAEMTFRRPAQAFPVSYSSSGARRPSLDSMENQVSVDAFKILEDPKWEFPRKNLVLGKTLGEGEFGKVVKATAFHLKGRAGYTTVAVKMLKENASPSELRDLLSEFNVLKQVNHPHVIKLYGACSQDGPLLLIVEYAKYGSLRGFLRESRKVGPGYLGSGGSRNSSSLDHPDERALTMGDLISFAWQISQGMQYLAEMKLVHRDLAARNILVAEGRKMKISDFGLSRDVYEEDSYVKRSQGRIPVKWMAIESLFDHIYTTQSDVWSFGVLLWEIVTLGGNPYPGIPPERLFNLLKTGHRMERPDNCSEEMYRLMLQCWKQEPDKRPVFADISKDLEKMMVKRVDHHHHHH

Jnk2 = target: T12, Jnk2 (Homo sapiens, UniProt P45984); experiment: AlphaScreen kinase assay, Jnk2; settings: read-out: IC50, activity toward kinase Jnk2
T12 construct: purchased Roche Protein Expression Group (Indianapolis, IN)
Outline: as §3

Zap70 = target: T13, Zap70 (Homo sapiens, UniProt P43403); experiment: AlphaScreen kinase assay, Zap70; settings: read-out: IC50, activity toward kinase Zap70
T13 construct: P1868.pFastBac1 ZAP70 D327-G606 HIS, WT; His7 (HHHHHHH) (C); made in house
T13 sequence (P43403 with tags, fused parts or gaps): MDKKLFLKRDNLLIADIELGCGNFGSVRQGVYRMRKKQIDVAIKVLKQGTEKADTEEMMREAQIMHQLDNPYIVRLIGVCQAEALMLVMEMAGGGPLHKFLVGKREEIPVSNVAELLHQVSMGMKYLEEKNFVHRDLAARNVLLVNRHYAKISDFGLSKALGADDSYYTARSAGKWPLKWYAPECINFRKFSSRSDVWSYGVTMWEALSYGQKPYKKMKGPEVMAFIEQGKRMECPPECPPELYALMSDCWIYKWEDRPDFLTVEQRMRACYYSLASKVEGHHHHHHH
Outline: as §3

Jnk1 = target: T14, Jnk1 (Homo sapiens, UniProt P45983); experiment: AlphaScreen kinase assay, Jnk1; settings: read-out: IC50, activity toward kinase Jnk1
T14 construct: purchased Upstate Biotechnology

Gsk3β = Gsk3β (Homo sapiens, UniProt P49841); experiment: AlphaScreen kinase assay, Gsk3β; settings: read-out: IC50, activity toward kinase Gsk3β
Outline: as §3

Flt1 = target: T15, Flt1 (Homo sapiens, UniProt P17948); experiment: AlphaScreen kinase assay, Flt1; settings: read-out: IC50, activity toward kinase Flt1
T15 construct: P1826.pETN6 BI-PTP FLT1 M799-D1165-X WT; His6 (N); made in house; host or cells: E. coli (PTP1B co-expressed)
T15 sequence (P17948 with tags, fused parts or gaps): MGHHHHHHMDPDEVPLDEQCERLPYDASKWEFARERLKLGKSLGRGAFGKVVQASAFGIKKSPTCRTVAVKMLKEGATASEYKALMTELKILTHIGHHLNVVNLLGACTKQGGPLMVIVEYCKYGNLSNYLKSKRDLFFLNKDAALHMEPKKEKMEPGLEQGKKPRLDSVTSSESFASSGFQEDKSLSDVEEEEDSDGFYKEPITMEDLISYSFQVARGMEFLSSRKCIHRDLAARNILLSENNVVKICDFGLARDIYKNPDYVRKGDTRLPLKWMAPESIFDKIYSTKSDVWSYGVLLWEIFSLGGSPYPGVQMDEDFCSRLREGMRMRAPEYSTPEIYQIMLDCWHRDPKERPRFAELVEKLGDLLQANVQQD

Src = target: T16, Src (Homo sapiens, UniProt P12931); experiment: AlphaScreen kinase assay, Src; settings: read-out: IC50, activity toward kinase Src
T16 construct: P1144. pET-N6 BI-PTP SRC V86-L536-X; made in house

Brk = Brk (Homo sapiens, UniProt Q13882); experiment: AlphaScreen kinase assay, Brk; settings: read-out: IC50, activity toward kinase Brk
Source text: as §1, §2

Frk = Frk (Homo sapiens, UniProt P42685); experiment: AlphaScreen kinase assay, Frk; settings: read-out: IC50, activity toward kinase Frk
Source text: as §1, §2

Csk = Csk (Homo sapiens, UniProt P41240); experiment: AlphaScreen kinase assay, Csk; settings: read-out: IC50, activity toward kinase Csk
Source text: as §1, §2

Measured: IC50

T1 sequence (P15056 whole entry): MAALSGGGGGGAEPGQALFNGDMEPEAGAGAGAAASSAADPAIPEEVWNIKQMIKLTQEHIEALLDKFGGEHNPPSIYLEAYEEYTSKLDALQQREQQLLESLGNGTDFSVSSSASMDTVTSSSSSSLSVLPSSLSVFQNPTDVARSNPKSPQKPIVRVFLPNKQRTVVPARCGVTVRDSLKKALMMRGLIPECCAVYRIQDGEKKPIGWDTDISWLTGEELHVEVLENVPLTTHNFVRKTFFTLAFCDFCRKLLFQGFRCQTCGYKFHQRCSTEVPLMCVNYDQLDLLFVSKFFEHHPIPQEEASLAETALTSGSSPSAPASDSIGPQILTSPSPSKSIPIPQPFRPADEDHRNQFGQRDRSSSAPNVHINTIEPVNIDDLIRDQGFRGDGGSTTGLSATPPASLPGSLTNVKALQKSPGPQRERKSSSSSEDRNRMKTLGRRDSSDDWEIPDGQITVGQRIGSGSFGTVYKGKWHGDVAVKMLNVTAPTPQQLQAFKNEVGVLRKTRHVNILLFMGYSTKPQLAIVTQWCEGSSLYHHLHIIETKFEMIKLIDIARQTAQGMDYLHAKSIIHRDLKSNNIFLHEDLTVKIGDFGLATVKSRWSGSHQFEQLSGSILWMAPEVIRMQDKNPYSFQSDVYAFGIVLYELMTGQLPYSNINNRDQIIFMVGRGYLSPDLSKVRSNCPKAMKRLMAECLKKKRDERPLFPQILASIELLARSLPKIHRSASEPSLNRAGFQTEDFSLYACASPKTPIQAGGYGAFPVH
T5 sequence (P11362 458-765 C488A/C584S): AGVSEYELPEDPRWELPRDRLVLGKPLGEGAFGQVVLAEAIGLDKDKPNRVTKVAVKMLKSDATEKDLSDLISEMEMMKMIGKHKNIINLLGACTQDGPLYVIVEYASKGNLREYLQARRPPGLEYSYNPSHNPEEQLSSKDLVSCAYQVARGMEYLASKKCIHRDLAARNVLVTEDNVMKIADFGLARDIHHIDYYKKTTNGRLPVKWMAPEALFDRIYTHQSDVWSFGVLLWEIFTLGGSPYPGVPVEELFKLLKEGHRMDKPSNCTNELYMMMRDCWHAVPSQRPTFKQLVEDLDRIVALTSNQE
T6 sequence (P15056 with tags, fused parts or gaps V600E): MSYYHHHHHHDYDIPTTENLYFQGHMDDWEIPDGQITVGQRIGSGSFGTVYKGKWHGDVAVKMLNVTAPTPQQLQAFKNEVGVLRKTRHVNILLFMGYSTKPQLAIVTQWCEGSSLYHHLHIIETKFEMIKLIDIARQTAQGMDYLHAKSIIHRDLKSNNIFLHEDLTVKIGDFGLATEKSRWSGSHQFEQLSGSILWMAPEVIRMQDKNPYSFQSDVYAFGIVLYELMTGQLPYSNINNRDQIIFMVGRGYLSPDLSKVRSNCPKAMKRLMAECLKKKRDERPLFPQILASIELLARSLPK
T4 sequence (P07333 20-972): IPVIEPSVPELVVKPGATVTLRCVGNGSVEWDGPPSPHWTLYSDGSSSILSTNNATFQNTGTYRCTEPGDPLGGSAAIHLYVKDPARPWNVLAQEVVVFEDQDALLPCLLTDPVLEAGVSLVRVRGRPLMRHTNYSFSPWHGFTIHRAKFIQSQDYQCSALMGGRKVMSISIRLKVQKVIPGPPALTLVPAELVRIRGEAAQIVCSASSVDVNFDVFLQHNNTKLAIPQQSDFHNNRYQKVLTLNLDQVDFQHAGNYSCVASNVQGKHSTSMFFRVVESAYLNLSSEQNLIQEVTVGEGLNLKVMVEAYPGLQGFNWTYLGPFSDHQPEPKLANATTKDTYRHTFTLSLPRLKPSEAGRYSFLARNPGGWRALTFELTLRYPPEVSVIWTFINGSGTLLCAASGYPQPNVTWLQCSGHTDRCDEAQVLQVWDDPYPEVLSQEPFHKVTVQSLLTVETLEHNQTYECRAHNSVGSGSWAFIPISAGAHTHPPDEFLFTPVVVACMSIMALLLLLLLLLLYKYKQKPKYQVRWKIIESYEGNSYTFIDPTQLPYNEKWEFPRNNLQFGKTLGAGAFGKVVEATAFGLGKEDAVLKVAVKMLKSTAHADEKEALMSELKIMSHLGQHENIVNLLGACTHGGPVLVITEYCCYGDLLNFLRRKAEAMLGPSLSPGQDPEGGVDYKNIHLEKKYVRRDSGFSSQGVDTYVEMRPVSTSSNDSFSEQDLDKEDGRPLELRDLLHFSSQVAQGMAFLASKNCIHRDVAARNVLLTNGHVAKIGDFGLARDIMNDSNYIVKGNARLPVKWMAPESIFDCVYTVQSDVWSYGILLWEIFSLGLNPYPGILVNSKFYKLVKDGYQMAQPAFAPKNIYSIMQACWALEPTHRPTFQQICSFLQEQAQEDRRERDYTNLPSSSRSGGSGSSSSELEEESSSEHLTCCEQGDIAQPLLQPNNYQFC
T7 sequence (P04049 whole entry): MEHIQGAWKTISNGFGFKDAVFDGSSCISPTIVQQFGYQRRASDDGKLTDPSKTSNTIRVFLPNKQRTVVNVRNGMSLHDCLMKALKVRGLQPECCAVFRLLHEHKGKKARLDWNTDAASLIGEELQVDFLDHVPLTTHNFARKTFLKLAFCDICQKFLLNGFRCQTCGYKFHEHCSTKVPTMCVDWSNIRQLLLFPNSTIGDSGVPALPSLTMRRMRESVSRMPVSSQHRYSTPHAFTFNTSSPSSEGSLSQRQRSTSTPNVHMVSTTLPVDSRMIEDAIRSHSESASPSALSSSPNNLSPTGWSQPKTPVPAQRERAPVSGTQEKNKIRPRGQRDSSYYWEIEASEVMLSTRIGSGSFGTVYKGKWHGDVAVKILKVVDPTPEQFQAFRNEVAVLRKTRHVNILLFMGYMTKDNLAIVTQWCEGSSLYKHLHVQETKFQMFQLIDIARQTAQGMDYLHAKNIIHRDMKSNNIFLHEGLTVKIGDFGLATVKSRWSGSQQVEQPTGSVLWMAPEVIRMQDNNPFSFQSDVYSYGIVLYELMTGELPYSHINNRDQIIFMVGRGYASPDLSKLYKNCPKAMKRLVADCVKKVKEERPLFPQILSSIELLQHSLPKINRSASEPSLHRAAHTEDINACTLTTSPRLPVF
T10 sequence (P53779 whole entry): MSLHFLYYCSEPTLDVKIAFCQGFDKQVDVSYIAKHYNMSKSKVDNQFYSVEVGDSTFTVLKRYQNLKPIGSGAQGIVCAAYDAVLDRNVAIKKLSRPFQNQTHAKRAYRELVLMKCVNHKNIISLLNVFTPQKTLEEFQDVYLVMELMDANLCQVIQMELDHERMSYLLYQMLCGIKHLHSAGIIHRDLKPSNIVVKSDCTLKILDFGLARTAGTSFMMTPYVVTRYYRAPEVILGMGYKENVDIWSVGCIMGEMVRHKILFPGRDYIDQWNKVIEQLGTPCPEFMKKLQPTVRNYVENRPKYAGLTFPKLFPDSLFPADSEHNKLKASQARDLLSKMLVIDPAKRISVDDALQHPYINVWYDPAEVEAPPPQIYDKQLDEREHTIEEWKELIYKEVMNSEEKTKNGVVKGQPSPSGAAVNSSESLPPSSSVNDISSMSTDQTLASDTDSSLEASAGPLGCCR
T2 sequence (P10721 with tags, fused parts or gaps): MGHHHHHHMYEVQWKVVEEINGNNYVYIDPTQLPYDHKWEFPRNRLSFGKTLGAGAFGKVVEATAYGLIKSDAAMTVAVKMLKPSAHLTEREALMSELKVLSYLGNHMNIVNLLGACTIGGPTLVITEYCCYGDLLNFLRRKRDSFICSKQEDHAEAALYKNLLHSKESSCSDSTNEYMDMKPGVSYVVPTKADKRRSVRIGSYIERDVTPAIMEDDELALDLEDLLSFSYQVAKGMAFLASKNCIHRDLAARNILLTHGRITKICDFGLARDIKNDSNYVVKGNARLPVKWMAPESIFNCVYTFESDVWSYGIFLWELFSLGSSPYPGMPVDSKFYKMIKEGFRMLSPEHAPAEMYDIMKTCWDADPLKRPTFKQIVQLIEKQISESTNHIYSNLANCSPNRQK
T16 sequence (P12931 with tags, fused parts or gaps): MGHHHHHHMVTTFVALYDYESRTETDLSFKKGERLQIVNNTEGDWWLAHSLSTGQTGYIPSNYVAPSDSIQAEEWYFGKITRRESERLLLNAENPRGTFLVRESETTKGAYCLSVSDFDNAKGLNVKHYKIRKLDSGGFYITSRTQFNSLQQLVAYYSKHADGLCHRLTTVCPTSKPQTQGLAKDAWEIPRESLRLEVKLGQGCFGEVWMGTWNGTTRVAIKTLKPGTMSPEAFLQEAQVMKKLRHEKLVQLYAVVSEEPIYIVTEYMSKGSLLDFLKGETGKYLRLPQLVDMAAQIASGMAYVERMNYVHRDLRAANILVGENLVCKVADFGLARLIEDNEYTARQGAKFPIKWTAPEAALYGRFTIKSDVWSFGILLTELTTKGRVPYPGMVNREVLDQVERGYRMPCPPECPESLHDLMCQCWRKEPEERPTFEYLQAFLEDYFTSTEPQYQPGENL
T14 sequence (P45983 whole entry): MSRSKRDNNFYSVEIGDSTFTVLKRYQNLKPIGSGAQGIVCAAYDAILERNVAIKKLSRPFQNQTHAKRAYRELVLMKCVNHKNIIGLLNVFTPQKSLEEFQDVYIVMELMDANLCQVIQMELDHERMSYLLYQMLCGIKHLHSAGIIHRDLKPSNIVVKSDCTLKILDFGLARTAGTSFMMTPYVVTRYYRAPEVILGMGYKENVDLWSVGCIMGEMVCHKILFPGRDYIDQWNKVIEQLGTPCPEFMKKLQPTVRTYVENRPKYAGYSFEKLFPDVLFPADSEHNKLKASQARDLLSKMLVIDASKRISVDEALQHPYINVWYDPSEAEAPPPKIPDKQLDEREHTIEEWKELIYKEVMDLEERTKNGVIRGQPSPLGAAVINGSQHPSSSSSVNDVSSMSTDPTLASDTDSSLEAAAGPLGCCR

O=C(c1c(F)ccc(NS(=O)(=O)c2ccccc2)c1F)c1c[nH]c2nccc(Cl)c12 [Compound P-0954, N-[3-(4-Chloro-1H-pyrrolo[2,3-b]pyridine-3-carbonyl)-2,4-difluoro-phenyl]-benzenesulfonamide]
≤ 10 µM: B-Raf | Plk1 | Kit | TEC | Fms | FGFR1 | MAP4K4 | B-Raf V600E | c-Raf-1

CS(=O)(=O)Nc1ccc(F)c(C(=O)c2c[nH]c3ncc(-c4cccc(C(N)=O)c4)cc23)c1 [Compound P-0228, 3-[3-(2-Fluoro-5-methanesulfonylamino-benzoyl)-1H-pyrrolo[2,3-b]pyridin-5-yl]-benzamide]
not listed: Plk1 | Kit | MAP4K4 | Gsk3β | Flt1 | Src | Brk | Frk | Csk
≤ 10 µM: all other assays above

O=C(Nc1ccc(F)c(C(=O)c2c[nH]c3ncc(-c4cccnc4)cc23)c1F)NC1CCCC1 [Compound P-1317, 1-Cyclopentyl-3-[2,4-difluoro-3-(5-pyridin-3-yl-1H-pyrrolo[2,3-b]pyridine-3-carbonyl)-phenyl]-urea]
not listed: Plk1 | Met | Ret | Jnk2 | Zap70 | Brk | Frk | Csk
≤ 10 µM: all other assays above

CCCS(=O)(=O)Nc1ccc(Cl)c(C(=O)c2c[nH]c3ncc(Br)cc23)c1F [Compound P-0805, Propane-1-sulfonic acid [3-(5-bromo-1H-pyrrolo[2,3-b]pyridine-3-carbonyl)-4-chloro-2-fluoro-phenyl]-amide]
≤ 10 µM: Brk | B-Raf | Frk | Flt1 | Fms | Src | FGFR1 | B-Raf V600E | Csk | c-Raf-1

Reference: US8415469B2, “Compounds and methods for kinase modulation, and indications therefor” (Plexxikon Inc., priority 2005, dated 2013)
